Tests used:
[1] = test system: squamous cell carcinoma cells; conditions: 50 μg/ml, 24 h; cited from earlier work
OPM2 cells [2] = assay: Growth of OPM2 cells under multiple low doses (cell counting); format: cell-based
Procedure: 2×10^5 OPM2 cells in 1 ml of full medium were cultured in 24-well plates in duplicates for 8 days. For the first three days the appropriate amount of Imiquimod® (1, 2, 5, 5, or 10 μg/ml) was added daily. For determination of absolute cell numbers 100 μl of cell suspension were taken on days 1-5 and day 8 and cell number was determined using the CASY Cell Counter Model DT (Schärfe System GmbH, Reutlingen, Germany). On the fourth day cells were spun down (200 g, 2 min) and 600 μl of the remaining 700 μl of supernatant (100 μl were left to keep cell pellet undisturbed) were removed and 600 μl of fresh full medium was added to the cell culture.

TLR7 pathway = assay: TLR pathway activation: IRAK1 and IκB degradation by Western blot in OPM2 cells; format: cell-based; conditions: OPM2 cells, 10, 20 or 40 μg/ml over night
Procedure: Cells were lysed in lysis-IP-Buffer supplemented with protease inhibitors and sodium orthovanadate. 10 μg of lysate were separated by SDS-PAGE (10% polyacrylamide) and transferred to methanol activated Hypond-P PVDF-membranes (Amersham, Freiburg, Germany) by semi-dry blotting. Membranes were blocked in a 3% bovine serum albumin solution or 5% non fat dry milk solution in phosphate buffered saline (PBS) with 0.1% Tween 20 (PBT). Primary antibodies were applied in blocking solution for 1 h at room temperature or over night at 4° C. Membranes were washed in PBT and incubated with corresponding secondary antibodies in 5% non fat dry milk in PBT for 1 h at room temperature. Cells were washed with PBT, incubated with ECL solution and exposed in a Fluorchem 5500 (Biozym, Oldendorf, Germany).
OPM2 cells were suspended in full medium and cultured in 24-well plates at a cell density of 500.000 cells/ml and well. Cells were left untreated (control) or treated over night with different concentrations of Imiquimod® (10, 20 or 40 μg/ml).
OPM2 cells were cultured in 24-well plates as described above. Imiquimod® (40 μg/ml) was added to cells (except controls) for different time periods (2, 4, 6 and 8 h) and the extent of PARP1 cleavage, IRAK1, IkB-α and IkB-β degradation were determined by Western blot. α-Tubulin was used as a loading control.

OPM2 cells [3] = assay: Annexin V/PI apoptosis assay (FACS), OPM2 cells; format: cell-based; design: apoptosis induction: unit not given here
Procedure: (§1) After treatment adherent cells were trypsinized (as described before), and resuspended in corresponding full medium. Suspension cells or trypsinized adherent cells, supernatant and washing solution (1×PBS from washing before trypsinization) were pooled and then spun down (300 g for 3 min) washed in 2 ml and resuspended in 1000 of annexin V binding buffer and mixed with 2 μg/ml annexin V-Allophycocyanin (APC) (BD-Pharmingen, San Diego, Calif., USA) and 50 ng/ml of propidium iodide (PI; Sigma Aldrich). At least 10.000 cells were measured per sample using a Becton Dickinson FACSCalibur flow Cytometer (San Jose, Calif., USA). Percentage of Annexin V negative and PI negative cells were depicted in the figures. For the analysis of the pro-apoptotic activity of Imiquimod® in primary MM cells and non-malignant BMMCs, 5×10^5 cells BMMCs cells were treated with or without 40 μg/ml Imiquimod® for the indicated time periods. Cells were then harvested and washed twice with PBS. Detection of apoptotic cells was performed using the annexin V/PI assay according to manufacturers' instruction. Briefly, BMMCs were stained with a mixture of annexin V/FITC (Alexis Coorp., Laeufelfingen, Switzerland), propidium iodide (Sigma), anti-CD38-PE and anti-CD45-PC5 for 15 min at room temperature and immediately analyzed by flow cytometry. The percentages of viable cells (i.e. cells negative for annexin V/FITC and PI) within the MM (CD38^posCD45^low/absent) and non-MM fraction (CD38^neg/CD45^pos) were determined by flow cytometry.
Cells were cultured as described before and, treated with 40 μg/ml Imiquimod® or Gardiquimod® for 24 h, and apoptosis was assayed by AnnexinV/PI staining and FACS analysis.
(§2) Adherent cells were grown in 24-well plates to confluence and treated with 40 μg/ml Imiquimod® for 24 h. Cells were then trypsinized, suspended in full medium, stained for AnnexinV/PI and apoptosis was measured as described before. Suspension cells (250.000) were treated with 40 μg/ml Imiquimod® for 24 h, stained for Annexin/PI and apoptosis was measured as described above (Annexin V/Propidium Iodide apoptosis Assay).
OPM-2 and U266 cells (2.5×10^5 in 500 μl) were treated with either Imiquimod® alone (10 μg/500 μl), various inhibitors/drugs alone or with the combination of Imiquimod® and inhibitors for 24 or 48 h. In the controls the solvent of the drug has been added in appropriate amounts. Cells were then AnnexinV/PI stained and apoptosis measured as described before.

[4] = test system: MDA468, CHO, ONK2, MCF7, HeLa, Raji, Daudi, Ramos, C7H2 and Jurkat; adherent cell lines; assay: Annexin V/PI apoptosis assay, non-MM and adherent cell lines; format: cell-based
Procedure: as §1, with “For the analysis of the pro-apoptotic activity of Imiquimod® in primary MM cells and non-malignant BMMCs, 5×10^5 cells BMMCs cells were treated with or without 40 μg/ml Imiquimod® for the indicated time periods. Cells were then harvested and washed twice with PBS. Detection of apoptotic cells was performed using the annexin V/PI assay according to manufacturers' instruction.” left out
Adherent cells were grown in 24-well plates to confluence and treated with 40 μg/ml Imiquimod® for 24 h. Cells were then trypsinized, suspended in full medium, stained for AnnexinV/PI and apoptosis was measured as described before. […]

[5] = test system: peripheral blood mononuclear cells (PBMCs); assay: Annexin V/PI apoptosis assay, PBMCs from healthy donors; format: cell-based, human; conditions: 40 μg/ml, 24 h
Procedure: PBMCs were prepared using separation via Ficoll density gradient centrifugation (Biochrom AG, Berlin, Germany) according to the protocol of the manufacturer.
as §1, §2

## CC(C)Cn1cnc2c(N)nc3ccccc3c21 [Imiquimod, 1-(2-methylpropyl)-1H-imidazo[4,5-c]quinolin-4-amine]
[1]
  apoptotic cells: 17.3%
OPM2 cells [2]; 3-times given dose of 10 μg/ml
  cell growth inhibition: sufficient to irreversibly inhibit cell growth
OPM2 cells [2]; triple treatment with 5 μg/ml
  cell growth inhibition: sufficient to significantly block the growth potential
TLR7 pathway
  IRAK1 degradation: degraded in a concentration-dependent manner
  IκB-α degradation: degraded in a concentration dependent manner
OPM2 cells [3]; OPM2 cells, 24 h, Imi 20 μg/ml alone
  apoptosis induction: +
OPM2 cells [3]; OPM2 cells, 24 h, Imiquimod 20 μg/ml or Akt inhibitor alone
  apoptosis induction, single agent: some apoptosis
OPM2 cells [3]; OPM2 cells, 48 h, Imi 20 μg/ml alone
  apoptosis induction: ++
OPM2 cells [3]; multiple myeloma cells, 10 μg/ml, 24 h
  apoptosis induction: apoptosis induction
OPM2 cells [3]; multiple myeloma cells, 40 μg/ml
  apoptosis induction in AnnexinV/PI FACS analysis assay: 70%
[4]; MDA468, CHO, ONK2, MCF7, HeLa, Raji, Daudi, Ramos, C7H2 and Jurkat
  sensitivity to Imiquimod: no sensitivity
[4]; set of adherent cell lines, 40 μg/ml, 24 h
  sensitivity (apoptosis): no significant or only minimal sensitivity
[5]; CD4+ and CD8+ cells from 12 healthy donors
  sensitivity (apoptosis): nearly no sensitivity
[5]; CD19+ cells from 12 healthy donors
  sensitivity (apoptosis): only mildly affected
